≈ marks a conversion by molar mass, not a printed value. Calls of active or inactive are those of the source. The rule behind the calls is not given here.
Columns and labels:
[1] = test system: Staphylococcus epidermidis; assay: Antibacterial activity against Staphylococcus epidermidis ATCC 35984 assessed as disappearance of bacterial surface proteins level at sub-MIC by zymographic analysis; format: functional, organism-based
Staphylococcus aureus [2] = assay: Antibacterial activity against Staphylococcus aureus ATCC 6538P assessed as change in bacterial surface protein level at sub-MIC by zymographic analysis; format: functional, organism-based
Staphylococcus aureus [3] = assay: Antibacterial activity against Staphylococcus aureus ATCC 6538P assessed as inhibition of planktonic growth at sub-MIC measured up to 25 hrs; format: functional, organism-based
[4] = test system: Staphylococcus epidermidis; assay: Antibacterial activity against Staphylococcus epidermidis ATCC 35984 assessed as inhibition of biofilm formation after 24 hrs by crystal violet staining; format: functional, organism-based; conditions: ATCC 35984, 24 h
[5] = test system: Staphylococcus epidermidis; assay: Antibacterial activity against Staphylococcus epidermidis ATCC 35984 by broth microdilution method; format: functional
[6] = test system: Staphylococcus epidermidis; assay: Antibacterial activity against Staphylococcus epidermidis ATCC 35984 incubated in drug free medium for 18 hrs after MIC determination by broth microdilution method; format: functional; conditions: ATCC 35984, 18 h
Staphylococcus aureus [7] = assay: Antibacterial activity against Staphylococcus aureus ATCC 6538P incubated in drug free medium for 18 hrs after MIC determination by broth microdilution method; format: functional
[8] = test system: Staphylococcus epidermidis; assay: Antibacterial activity against Staphylococcus epidermidis ATCC 35984 assessed as inhibition of planktonic growth at sub-MIC measured up to 25 hrs; format: functional, organism-based
Staphylococcus aureus [9] = assay: Antibacterial activity against Staphylococcus aureus ATCC 6538P assessed as change in bacterial surface protein level at sub-MIC by SDS-PAGE analysis; format: functional, organism-based
Staphylococcus aureus [10] = assay: Antibacterial activity against Staphylococcus aureus ATCC 6538P by broth microdilution method; format: functional
[11] = test system: Staphylococcus epidermidis; assay: Antibacterial activity against Staphylococcus epidermidis ATCC 35984 assessed as disappearance of bacterial surface protein level at sub-MIC by SDS-PAGE analysis; format: functional, organism-based
Staphylococcus aureus [12] = assay: Antibacterial activity against Staphylococcus aureus ATCC 6538P assessed as inhibition of biofilm formation after 24 hrs by crystal violet staining; format: functional, organism-based
[13] = test system: Staphylococcus epidermidis; assay: Antibacterial activity against Staphylococcus epidermidis ATCC 35984 assessed as modification of bacterial surface protein pattern at 4 uM by zymographic analysis; format: functional, organism-based
[14] = Ratio of MIC for Staphylococcus aureus ATCC 6538P to MIC for Staphylococcus epidermidis ATCC 35984; format: functional
[15] = test system: Staphylococcus epidermidis; assay: Antibacterial activity against Staphylococcus epidermidis ATCC 35984 assessed as modification of bacterial surface protein pattern at 8 uM by zymographic analysis; format: functional, organism-based
[16] = test system: Staphylococcus epidermidis; assay: Antibacterial activity against Staphylococcus epidermidis ATCC 35984 assessed as modification of bacterial surface protein pattern at 14 uM by zymographic analysis; format: functional, organism-based

SMILES | Activity [1] | Activity (Staphylococcus aureus [2]) | Activity (Staphylococcus aureus [3]) | EC50 [4] | MIC [5] | MBC [6] | MBC (Staphylococcus aureus [7]) | Activity [8] | Activity (Staphylococcus aureus [9]) | MIC (Staphylococcus aureus [10]) | Activity [11] | EC50 (Staphylococcus aureus [12]) | Activity [13] | Ratio [14] | Activity [15] | Activity [16]
Oc1cc(O)c2c(c1)O[C@@]1(c3ccc(O)c(O)c3)Oc3cc(O)c4c(c3[C@@H]2[C@H]1O)O[C@H](c1ccc(O)c(O)c1)[C@H](O)C4 [PROANTHOCYANIDIN A2] | Active | inactive | inactive | 7.6 µM | > 169 µM | > 169 µM | > 169 µM | inactive | inactive | > 169 µM | Active | 6.9 µM |  |  |  | 
COc1ccc2c(c[n+](C)c3c4cc5c(cc4ccc23)OCO5)c1OC [CHELERYTHRINE CHLORIDE] |  | inactive | inactive | 8.6 µM | 16.3 µM | > 260 µM | > 260 µM | inactive | inactive | 16.3 µM |  | 15.2 µM | inactive |  |  | 
C[n+]1cc2c3c(ccc2c2ccc4cc5c(cc4c21)OCO5)OCO3 [SANGUINARIUM] |  | inactive | inactive | 4.4 µM | 8.5 µM | 34 µM | 34 µM | inactive | inactive | 34 µM | Active | 24.5 µM |  | 4 | inactive | 
Oc1ccc(-c2cc3ccccc3o2)c(O)c1 |  | inactive | inactive | 23.5 µM | 55.3 µM (≈ 12.5 µg/mL) | 55.3 µM (≈ 12.5 µg/mL) | 55.3 µM (≈ 12.5 µg/mL) | inactive | inactive | 55.3 µM (≈ 12.5 µg/mL) |  | 8.2 µM |  |  |  | inactive

Reference: ChEMBL document CHEMBL1949602, “Bacterial biofilm formation inhibitory activity revealed for plant derived natural compounds” (Bioorg Med Chem, 2012)
